{"source": "patent US20250346629A1", "about": "“USE OF D-ENANTIOMERIC PEPTIDE LIGANDS OF MONOMERIC ALPHA-SYNUCLEIN FOR THE THERAPY OF VARIOUS SYNUCLEINOPATHIES” (PRIAVOID GMBH, priority 2021, published 2025)", "key": {"WT α-syn": {"target": "WT α-syn (Homo sapiens, UniProt P37840)", "assay": "Single cycle SPR experiment of WT α-syn on CM5-immobilized peptides (FIG. 8)", "conditions": "1:1 binding model fit, CM5 chip, PBS pH 7.4, 0.005% Tween-20", "experimental": "Each peptide was immobilized on a CM5 sensor chip surface. WT α-syn was injected in a concentration range of 30-500 nM in PBS, PH 7.4, 0.005% (v/v) Tween-20. Regeneration was carried out after every cycle with 2 M Gua-HCl for 2×30 sec. The KDs were determined with a 1:1 binding model fit, as follows: SVD-1a: 15.7 nM; SVD-6a: 14.0 nM; SVD-10a: 12.3 nM."}, "[1]": {"test_system": "αSynA53T-YFP cells (HEK293T)", "assay": "Cell assay for seeded α-synuclein aggregation (FIG. 19)", "type": "cell-based, human", "conditions": "seeded with 30 nM PFF oligomers, day 3, two-stage transfection", "experimental": "A construct encoding full-length A53T-mutated human α-syn and fused with YFP at the C-terminus was synthesized and introduced into the pMK-RQ expression vector (GeneArt; Thermo Fisher Scientific, USA). The α-synA53T-YFP construct was sub-cloned using the restriction sites NheI (5′) and NotI (3′) in the vector pIRESpuro3 (Clontech; Takara Bio, JPN). HEK293T cells (American Type Culture Collection) were cultured in high-glucose Dulbecco's Modified Eagle's Medium (DMEM; Sigma-Aldrich, USA) which had 10% fetal calf serum (Sigma-Aldrich, USA), 50 units/ml penicillin, and also 50 μg/ml streptomycin (Sigma-Aldrich, USA) added thereto. The cells were cultured at 37° C. in a humidified atmosphere with 5% CO2.\nThe cells plated in DMEM were transfected with Lipofectamine 2000 (Invitrogen; Thermo Fisher Scientific, USA). Stable cells were selected in DMEM with 1 μg/ml puromycin (EMD Millipore, USA). Monoclonal cell lines were produced by means of fluorescence-activated cell sorting of a polyclonal cell population in 96-well plates using a MoFlo XDP cell sorter (Beckman Coulter, USA). […]\nThe plates were then incubated at 37° C. in a humidified atmosphere with 5% CO2. On the third day, the cells were imaged in an IN Cell Analyzer 6500HS system (Cytiva, USA) using the blue and green fluorescence channels, and analyzed by the IN Carta Image Analysis software (Cytiva, USA) which had been used to establish an algorithm for identifying intracellular aggregates in living cells. Four wells were used for each condition and 16 images were recorded per well and analyzed by a fully-automated algorithm in order to prevent distortions. […]\nIn order to validate the inhibitory effect of SVD-1a in cells, use was made of the α-synA53T-YFP cell system which stably expresses human α-syn with the familial A53T mutation, fused with YFP, in HEK293T cells, and the fluorescence-based detection of aggregates makes it possible to clearly show the strongly fluorescent spots within the cells against the background, intracellularly after seeding with PFF oligomers. […] Panels C, F and I show αSynA53T-YFP fluorescence. […]"}, "monomeric α-syn": {"target": "monomeric α-syn (Homo sapiens, UniProt P37840)", "assay": "Size-exclusion chromatography of monomeric α-syn after incubation with SVD-1a (FIG. 13)", "type": "biochemical", "conditions": "10 μM α-syn monomer with 0-80 μM SVD-1a, 2 h, 37° C., 300 rpm", "experimental": "10 μM α-syn monomer were incubated with 0, 5, 10, 20, 40 and 80 μM SVD-1a in PBS, pH 7.4, for 2 h at 37° C. and 300 rpm. The SEC was carried out with a Bio SEC-3 column (150 Å, Agilent, USA) at 1 ml min^−1 and PBS, pH 7.4, as mobile phase. The samples were centrifuged for 5 minutes at 20 800×g before the supernatant was injected. The protein was detected at A214. α-syn monomer eluted after 6.91 min retention time. The peak area of the α-syn monomer was integrated for the 10 μM α-syn sample and set to 100%. The concentration of monomeric α-syn was not reduced in the presence of increasing concentrations of SVD-1a. SVD-1a itself was only eluted during the purification and regeneration procedure of the SEC, which is highly probably attributable to its high net positive charge."}}, "note": "Square brackets hold non-standard residues; d marks the D form. Peptide text beside a SMILES is read from it.", "data": [{"molecule": "CC[C@@H](C)[C@@H](NC(=O)[C@@H](Cc1c[nH]cn1)NC(=O)[C@@H](CCC(=O)O)NC(=O)[C@@H](CCC(N)=O)NC(=O)[C@@H](Cc1c[nH]c2ccccc12)NC(=O)[C@@H](Cc1ccc(O)cc1)NC(=O)[C@H](NC(=O)[C@@H](CCC(=O)O)NC(=O)[C@@H](Cc1c[nH]cn1)NC(=O)[C@H](NC(=O)[C@H]1CCCN1C(=O)[C@@H](CC(C)C)NC(=O)[C@H](N)CCCNC(=N)N)[C@H](C)O)[C@H](C)O)C(=O)N[C@H](Cc1c[nH]c2ccccc12)C(=O)N[C@H](Cc1c[nH]cn1)C(=O)N[C@H](C)C(=O)N[C@H](CCCNC(=N)N)C(=O)N[C@H](CCCNC(=N)N)C(=O)N[C@H](CCCNC(=N)N)C(=O)N[C@H](CCCNC(=N)N)C(=O)N[C@H](CCCNC(=N)N)C(N)=O", "note": "[SVD-1a, rlpthetywqehiwharrrrr] (H-[dR][dL][dP][dT][dH][dE][dT][dY][dW][dQ][dE][dH][dI][dW][dH][dA][dR][dR][dR][dR][dR]-NH2)", "values": [{"measurement": "Kd", "setting": "WT α-syn", "result": 15.7, "unit": "nM"}, {"measurement": "inhibition of α-syn aggregation in cells", "setting": "[1]", "result": "inhibited α-syn aggregation in αSynA53T-YFP cells in a dose-dependent manner"}, {"measurement": "concentration of monomeric α-syn (SEC peak area)", "setting": "monomeric α-syn", "result": "not reduced"}]}]}
